Test [1] relates to PAF-mediated bronchoconstriction in guinea pigs. Description: PAF-induced Pulmonary Inflation Pressure (PIP) Increase test (Test B). To be noted: PAF 100 ng/kg iv, slowly decreases to baseline. It is filed as in vivo, guinea pig. As to the method: Furthermore, in view of their usefulness as PAF receptor antagonists, the compounds of formula I have been found useful as inhibitors of PAF-mediated bronchoconstriction, which property was evaluated by the PAF-induced Pulmonary Inflation Pressure (PIP) Increase test (Test B) as follows:
Male guinea pigs, weighing between 300 and 400 gm, are anesthetized, after which time trachea tube, carotid and jugular catheters are inserted. The test animal is then force ventilated employing a small animal Harvard respirator and the resistance to lung inflation (PIP) is measured utilizing a pressure transducer and recorder. The test compound is administered either orally at 30 minutes prior to or intravenously (jugular) at 5 minutes prior to the introduction of PAF. The PAF (C18 -Sandoz, Hanover) is dissolved in Tris-Tyrode's bovine serum albumin buffer and administered intravenously (jugular) at 100 ng/kg. Any blood pressure measurements taken are recorded from a transducer attached to the carotid catheter. […] A reading at 15 minutes after the administration of PAF is termed the endpoint PIP. The effect of the test compound on the PIP response is determined by the difference between the percent increase in maximal PIP over baseline for the test animal to which has been administered PAF and the test compound compared to the test animal to which only PAF has been administered.

Test [2] relates to PAF-induced hypotension in Wistar rats. Briefly: Inhibition of PAF-induced hypotension (Test D). The format is in vivo, rat (male Wistar). To be noted: male Wistar rats. As to the method: Yet still further, the compounds of formula I are useful as inhibitors of PAF-induced hypotension as measured by their ability to inhibit the lowering of blood pressure levels induced by PAF according to the following test (Test D):
Male Wistar rats, weighing approximately 300 gm, are anesthetized and their carotid arteries cannulated to enable their diastolic and systolic arterial blood pressure measurements to be recorded. PAF is then administered intravenously at either 100 or 500 ng/kg, and the blood pressure drop (within 10 sec.) and recovery time required to reach the pre-injection blood pressure level are measured. At 100 ng/kg, a 30% decrease in blood pressure and a 3 to 4 minute recovery time are observed, whereas at 500 ng/kg, a 52% decrease in blood pressure and a 10 minute recovery time are observed. In order to measure the effectiveness of a compound for both the inhibition of blood pressure decreases and shortening of the recovery time, the test compound is administered intravenously over a range of between 5 and 7 dosage levels (1 or 2 test animals per dose) and between 1 and 5 minutes prior to the introduction of PAF to generate an ED50.

For test [3], the system named is human platelet aggregation (PAF-induced). Description: Platelet Aggregation Inhibition Assay test (PAIA test): inhibition of PAF-induced human platelet aggregation in vitro. It is filed as cell-based. Conditions: PAF-induced human platelet aggregation in PRP, 37° C., C-16 PAF 0.1 μM or 0.01 μM. As to the method: All of the compounds of formula I are useful as platelet activating factor inhibitors as indicated by their ability to inhibit platelet activating factor (PAF)-induced human platelet aggregation in vitro according to the Platelet Aggregation Inhibition Assay test (PAIA test) as follows:
Human subjects are kept aspirin free for one week and fasted overnight. Platelet rich plasma (PRP) is prepared by centrifugation (200×g.) of freshly drawn blood, anti-coagulated with 0.38% sodium citrate (final concentration). Platelet count is adjusted to 250,000 per μl using platelet poor plasma (PPP) obtained by a second centrifugation (700×g.) of the blood sample. An aliquot (0.38 ml.) of the PRP is dispensed into cuvettes and maintained at room temperature (22° C.) until used (but for not more than two hours). The PRP-containing cuvettes are incubated at 37° C. and stirred at 900 rpm within a Payton Aggregometer which is activated to follow the light deflection pattern prior to the addition of the test compound. […] Between one and two minutes after the addition of the test compound, the aggregation inducing agent (C-16 PAF-Sandoz-Hanover), dissolved in a buffer consisting of 0.01M Tris-Tyrodes buffer with 0.25% bovine serum albumin (pH 7.4), is added to the PRP-containing cuvettes in an amount predetermined to give a consistent aggregation response (either 0.1 μM or 0.01 μM). All aggregations are allowed to proceed for 6 minutes from the addition of the inducing agent. The aggregation response is quantitated by determining the area under the curve (AUC). The AUC calculated for the inducing agent alone is considered to be one hundred percent. The potential percent inhibition of the aggregation response is determined by dividing the AUC generated in the presence of the compound by the AUC of the inducing agent alone, multiplying by 100 and then subtracting from 100.

The subject of test [4] is PAF-mediated extravasation in guinea pigs. Briefly: PAF-induced Extravasation test (Test C), hemoconcentration (hematocrit). It is filed as in vivo, guinea pig. To be noted: Cavia porcellus, ia, PAF 100 ng/kg iv, inhibition of percent increase in hematocrit. As to the method: Still further, the compounds of formula I are useful as inhibitors of PAF-mediated extravasation (the extrusion of plasma from the lumen of the blood vessels into the vessel wall and surrounding tissues) measured as a function of hemoconcentration according to the PAF-induced Extravasation test (Test C) as follows.
Male guinea pigs, weighing between 300 and 400 gm, are anesthetized, after which time a femoral catheter is inserted. The test compound is administered intraarterially at one to five minutes prior to the introduction of PAF. The PAF (C18 -Sandoz, Hanover) is dissolved in Tris-Tyrode's bovine serum albumin buffer and administered intravenously (jugular) at 100 ng/kg.
To determine the hematocrit value, which is employed to index hemoconcentration and is defined as the percent of packed red blood cells in a sample of blood which is centrifuged to separate plasma from the cellular components, blood samples are collected in 50 μl heparinized hematocrit tubes. […] The tubes are then centrifuged and the percent of packed red blood cells (hematocrit) is measured (PAF induces a maximal increase in hematocrit at 5 to 7 minutes subsequent to the injection of PAF). The percent increase in hematocrit over the value prior to the injection of PAF is calculated. […]

Test [5] concerns the target T1, Human Platelet PAF Receptor (Homo sapiens, UniProt P25105).
T1 construct: from tissue; host or cells: washed human platelets from blood of healthy donors
Description: Human Platelet PAF Receptor Assay test (Test A): inhibition of specific binding of [3H]-PAF to platelets. Conditions: [3H]-PAF specific binding to human platelets, room temperature, one hour. On the procedure:
Human blood is obtained by venipuncture of healthy, human donors into an anti-coagulant mixture containing 3.15% of trisodium citrate and 20 μg/ml of Prostaglandin I2 (PGI2) in a ratio of blood to anti-coagulant of 9:1. Platelet rich plasma (PRP) is prepared by centrifugation (250×g) of the blood for 20 minutes at room temperature. The PRP is then centrifuged (900×g) for 10 minutes at room temperature and the platelet pellet is washed two times with Tris-Tyrode's (TT) solution having a pH of 7.4 and containing 0.25% bovine serum albumin (BSA), and to which has been added PGI2 at a final concentration of […]. The platelets are resuspended at […] in TT/BSA containing 1.4 mM CaCl2.2H2 O and 0.7 mM MgCl2.6H2 O. All of the tests are conducted in duplicate and each of the test compounds is evaluated at concentrations of 100, 50, 1 and 0.1 μM. For each determination, the following solutions are mixed:
500 μl of the above-described platelets;
10 μl of [^3 H]-PAF (40,000 counts per minute (cpm) to a final concentration of […]); and
10 μl of the test compound at 50× the desired final concentration,
10 μl of vehicle (total bound), or
10 μl of 1.85×10^-5 M cold PAF (non-specifically bound).
Each mixture is allowed to incubate at room temperature for one hour, after which time the reaction is terminated by the addition of 500 μl of ice cold TT/BSA and centrifugation (900×g) at 4° C. for 10 minutes. […] An additional 2 ml. of Scintiverse II is then added to the vials and, after mixing, the vials are counted for 1 minute in a liquid scintillation spectrometer. The amount of specific binding is calculated as the difference in cpm between the total bound [^3 H]-PAF and non-specifically bound [^3 H]-PAF. The percent inhibition of specific binding is determined by dividing the cpm specifically bound in the presence of the test compound by the cpm specifically bound in total, multiplying by 100 and then subtracting from 100. […]

Where a name gives a salt, the structure may show the parent alone.

T1 sequence (P25105 whole entry): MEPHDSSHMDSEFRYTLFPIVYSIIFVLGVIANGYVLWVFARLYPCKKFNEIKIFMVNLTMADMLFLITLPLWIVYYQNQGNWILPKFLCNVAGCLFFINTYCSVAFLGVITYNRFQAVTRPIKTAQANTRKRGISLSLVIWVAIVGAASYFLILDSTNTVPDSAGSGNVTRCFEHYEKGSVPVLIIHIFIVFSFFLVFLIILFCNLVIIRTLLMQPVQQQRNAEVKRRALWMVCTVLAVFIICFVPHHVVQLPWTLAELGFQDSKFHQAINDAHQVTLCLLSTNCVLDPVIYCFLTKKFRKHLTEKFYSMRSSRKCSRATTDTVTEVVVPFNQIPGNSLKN

On to “1-O-alkyl-2-acetyl-sn-glyceryl-3-phosphorylcholine [PAF]”, for which the “duration of long term PIP response” value in test [1] is on record as “at least 30 minutes”. In addition, the “decrease in blood pressure” value in test [2] (PAF 100 ng/kg iv) was found to be 30%. Moreover, in test [2] (PAF 500 ng/kg iv), the “decrease in blood pressure” value was 52% and the “recovery time to pre-injection blood pressure level” value worked out at 10 min.
Usually IC50 stands for the midpoint of a concentration-inhibition curve. For orientation: ED50 means the dose at which the effect has come halfway, by size or by number of responders. Higher therefore signals a need for a large dose. As for `CCCCCCCCCCCCCCCCCCOCCC1(COP(=O)([O-])OCC[n+]2ccsc2)CCC(=O)O1` (stereo not shown) [Example 1, 3-[2-[(2-Octadecyloxy)ethyl-5-oxo-tetrahydrofuran-2-yl]methoxyhydroxyphosphinyloxy-ethane]thiazolium hydroxide-inner salt-4-oxide], the half-inhibitory concentration (IC50) in test [3] amounted to 10.5 µM; in test [5], 1.8 µM. Further, in test [4], the 50% effect level (ED50) was put at a dose of 0.25 mg/kg.
Regarding `CCCCCCCCCCCCCCCCCCOCC1(COP(=O)([O-])OCC[n+]2ccsc2)CCCO1` (stereo not shown) [Example 2, 3-[2-[(2-Octadecyloxymethyltetrahydrofuran-2-yl-methoxy)-hydroxyphosphinyloxy]-ethane]-thiazolium hydroxide inner salt-4-oxide], the half-inhibitory concentration (IC50) in test [3] came out at 81.5 µM; in test [5], 3.3 µM.
Consider `CCCCCCCCCCCCCCCCCCNC(=O)OCC1(COP(=O)([O-])OCC[n+]2ccsc2)CCCO1` (stereo not shown) [Example 3, 3-[2-[(2-Octadecylaminocarbonyloxymethyltetrahydrofuran-2-yl-methoxy)-hydroxyphosphinyloxy]-ethane]-thiazolium hydroxide inner salt-4-oxide], for which the IC50 was determined as 3.5 µM in test [3] and 0.47 µM in test [5]. For the same compound, the ED50 turned out to be 0.3 mg/kg in test [4] and 1.5 mg/kg in test [2] (Rattus norvegicus, iv, PAF-induced hypotension).

The values above are taken from patent publication US4619917A, “Substituted 2-furanyl- or 5-oxo-2-furanyl methoxy phosphoryl alkyl cyclimmonium salts” (Sandoz Pharm. Corp., priority 1985, dated 1986).
